Data reported in patent US8338608B2, “Inhibitors of ion channels” (Icagen Inc., priority 2005, dated 2012).

Tests used:
[1] = molecular target: T1, hSCN3A (Homo sapiens, UniProt Q9NY46); assay: SCN3A inhibitory activity in HEK cells stably expressing hSCN3A (whole-cell patch clamp / radiotracer efflux HTS); type: cell-based; conditions: HEK cells stably transfected with hSCN3A; read-out: SCN3A Inhibitory Activity
T1 construct: expressed in transfected cells

[2] = molecular target: Nav1.8 (Homo sapiens, UniProt Q9Y5Y9); conditions: read-out: TTX IC-50; cited from earlier work
[3] = molecular target: Nav1.1 (Homo sapiens, UniProt P35498); conditions: read-out: TTX IC-50; cited from earlier work
[4] = molecular target: Nav1.3 (Homo sapiens, UniProt Q9NY46); conditions: read-out: TTX IC-50; cited from earlier work
Nav1.3, sequence (Q9NY46 whole entry, looked up): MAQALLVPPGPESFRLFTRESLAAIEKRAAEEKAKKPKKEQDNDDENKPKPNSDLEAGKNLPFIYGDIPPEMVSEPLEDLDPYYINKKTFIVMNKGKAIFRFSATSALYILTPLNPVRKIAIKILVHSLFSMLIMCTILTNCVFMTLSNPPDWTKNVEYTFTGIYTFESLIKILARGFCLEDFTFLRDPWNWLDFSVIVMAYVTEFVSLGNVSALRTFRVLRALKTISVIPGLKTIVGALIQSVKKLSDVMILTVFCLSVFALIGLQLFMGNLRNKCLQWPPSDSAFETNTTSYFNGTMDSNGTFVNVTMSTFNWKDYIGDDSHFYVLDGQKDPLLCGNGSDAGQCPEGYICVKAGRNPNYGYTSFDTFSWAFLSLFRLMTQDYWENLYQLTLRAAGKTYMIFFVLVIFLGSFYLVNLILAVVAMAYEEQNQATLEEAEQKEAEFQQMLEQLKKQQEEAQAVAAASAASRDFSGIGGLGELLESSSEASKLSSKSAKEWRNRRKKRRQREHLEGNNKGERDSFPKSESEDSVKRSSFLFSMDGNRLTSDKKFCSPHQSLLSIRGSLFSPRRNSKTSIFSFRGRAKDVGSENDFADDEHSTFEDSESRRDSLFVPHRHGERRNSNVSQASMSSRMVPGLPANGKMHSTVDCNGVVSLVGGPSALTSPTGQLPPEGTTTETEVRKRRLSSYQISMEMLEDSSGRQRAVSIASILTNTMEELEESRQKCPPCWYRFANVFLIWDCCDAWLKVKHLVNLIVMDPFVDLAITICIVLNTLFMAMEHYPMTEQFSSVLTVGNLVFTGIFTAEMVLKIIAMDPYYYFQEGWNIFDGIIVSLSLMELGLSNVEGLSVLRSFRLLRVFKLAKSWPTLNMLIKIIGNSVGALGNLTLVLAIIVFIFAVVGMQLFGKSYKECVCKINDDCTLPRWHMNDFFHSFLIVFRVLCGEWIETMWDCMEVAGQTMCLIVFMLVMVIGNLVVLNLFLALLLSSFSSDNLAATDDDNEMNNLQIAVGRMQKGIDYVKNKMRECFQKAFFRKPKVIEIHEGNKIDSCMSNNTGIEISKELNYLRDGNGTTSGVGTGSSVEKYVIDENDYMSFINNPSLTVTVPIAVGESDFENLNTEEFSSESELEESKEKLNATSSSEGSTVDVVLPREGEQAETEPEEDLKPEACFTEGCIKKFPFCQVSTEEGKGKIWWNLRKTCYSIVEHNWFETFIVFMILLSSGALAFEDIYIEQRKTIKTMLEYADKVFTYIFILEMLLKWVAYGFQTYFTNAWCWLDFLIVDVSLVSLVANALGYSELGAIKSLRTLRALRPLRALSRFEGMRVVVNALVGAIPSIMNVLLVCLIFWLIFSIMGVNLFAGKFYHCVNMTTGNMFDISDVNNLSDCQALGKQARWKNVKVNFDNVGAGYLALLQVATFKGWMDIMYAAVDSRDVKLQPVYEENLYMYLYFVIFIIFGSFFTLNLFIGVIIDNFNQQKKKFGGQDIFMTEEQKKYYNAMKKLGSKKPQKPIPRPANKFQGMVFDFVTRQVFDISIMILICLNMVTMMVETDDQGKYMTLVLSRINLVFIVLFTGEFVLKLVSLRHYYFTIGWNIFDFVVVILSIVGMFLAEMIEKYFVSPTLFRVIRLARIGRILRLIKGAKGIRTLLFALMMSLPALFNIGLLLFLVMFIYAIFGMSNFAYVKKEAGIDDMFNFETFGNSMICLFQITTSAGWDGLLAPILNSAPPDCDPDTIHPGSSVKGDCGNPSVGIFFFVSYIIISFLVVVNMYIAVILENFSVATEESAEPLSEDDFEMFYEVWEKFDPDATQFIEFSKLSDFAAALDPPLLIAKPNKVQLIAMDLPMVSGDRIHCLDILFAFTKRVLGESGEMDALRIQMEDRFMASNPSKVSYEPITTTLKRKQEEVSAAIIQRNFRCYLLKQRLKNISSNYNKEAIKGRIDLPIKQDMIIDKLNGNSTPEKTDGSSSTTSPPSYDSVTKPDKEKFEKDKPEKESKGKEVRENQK

[5] = molecular target: Nav1.6 (Homo sapiens, UniProt Q9UQD0); conditions: read-out: TTX IC-50; cited from earlier work
Nav1.6, sequence (Q9UQD0 whole entry, looked up): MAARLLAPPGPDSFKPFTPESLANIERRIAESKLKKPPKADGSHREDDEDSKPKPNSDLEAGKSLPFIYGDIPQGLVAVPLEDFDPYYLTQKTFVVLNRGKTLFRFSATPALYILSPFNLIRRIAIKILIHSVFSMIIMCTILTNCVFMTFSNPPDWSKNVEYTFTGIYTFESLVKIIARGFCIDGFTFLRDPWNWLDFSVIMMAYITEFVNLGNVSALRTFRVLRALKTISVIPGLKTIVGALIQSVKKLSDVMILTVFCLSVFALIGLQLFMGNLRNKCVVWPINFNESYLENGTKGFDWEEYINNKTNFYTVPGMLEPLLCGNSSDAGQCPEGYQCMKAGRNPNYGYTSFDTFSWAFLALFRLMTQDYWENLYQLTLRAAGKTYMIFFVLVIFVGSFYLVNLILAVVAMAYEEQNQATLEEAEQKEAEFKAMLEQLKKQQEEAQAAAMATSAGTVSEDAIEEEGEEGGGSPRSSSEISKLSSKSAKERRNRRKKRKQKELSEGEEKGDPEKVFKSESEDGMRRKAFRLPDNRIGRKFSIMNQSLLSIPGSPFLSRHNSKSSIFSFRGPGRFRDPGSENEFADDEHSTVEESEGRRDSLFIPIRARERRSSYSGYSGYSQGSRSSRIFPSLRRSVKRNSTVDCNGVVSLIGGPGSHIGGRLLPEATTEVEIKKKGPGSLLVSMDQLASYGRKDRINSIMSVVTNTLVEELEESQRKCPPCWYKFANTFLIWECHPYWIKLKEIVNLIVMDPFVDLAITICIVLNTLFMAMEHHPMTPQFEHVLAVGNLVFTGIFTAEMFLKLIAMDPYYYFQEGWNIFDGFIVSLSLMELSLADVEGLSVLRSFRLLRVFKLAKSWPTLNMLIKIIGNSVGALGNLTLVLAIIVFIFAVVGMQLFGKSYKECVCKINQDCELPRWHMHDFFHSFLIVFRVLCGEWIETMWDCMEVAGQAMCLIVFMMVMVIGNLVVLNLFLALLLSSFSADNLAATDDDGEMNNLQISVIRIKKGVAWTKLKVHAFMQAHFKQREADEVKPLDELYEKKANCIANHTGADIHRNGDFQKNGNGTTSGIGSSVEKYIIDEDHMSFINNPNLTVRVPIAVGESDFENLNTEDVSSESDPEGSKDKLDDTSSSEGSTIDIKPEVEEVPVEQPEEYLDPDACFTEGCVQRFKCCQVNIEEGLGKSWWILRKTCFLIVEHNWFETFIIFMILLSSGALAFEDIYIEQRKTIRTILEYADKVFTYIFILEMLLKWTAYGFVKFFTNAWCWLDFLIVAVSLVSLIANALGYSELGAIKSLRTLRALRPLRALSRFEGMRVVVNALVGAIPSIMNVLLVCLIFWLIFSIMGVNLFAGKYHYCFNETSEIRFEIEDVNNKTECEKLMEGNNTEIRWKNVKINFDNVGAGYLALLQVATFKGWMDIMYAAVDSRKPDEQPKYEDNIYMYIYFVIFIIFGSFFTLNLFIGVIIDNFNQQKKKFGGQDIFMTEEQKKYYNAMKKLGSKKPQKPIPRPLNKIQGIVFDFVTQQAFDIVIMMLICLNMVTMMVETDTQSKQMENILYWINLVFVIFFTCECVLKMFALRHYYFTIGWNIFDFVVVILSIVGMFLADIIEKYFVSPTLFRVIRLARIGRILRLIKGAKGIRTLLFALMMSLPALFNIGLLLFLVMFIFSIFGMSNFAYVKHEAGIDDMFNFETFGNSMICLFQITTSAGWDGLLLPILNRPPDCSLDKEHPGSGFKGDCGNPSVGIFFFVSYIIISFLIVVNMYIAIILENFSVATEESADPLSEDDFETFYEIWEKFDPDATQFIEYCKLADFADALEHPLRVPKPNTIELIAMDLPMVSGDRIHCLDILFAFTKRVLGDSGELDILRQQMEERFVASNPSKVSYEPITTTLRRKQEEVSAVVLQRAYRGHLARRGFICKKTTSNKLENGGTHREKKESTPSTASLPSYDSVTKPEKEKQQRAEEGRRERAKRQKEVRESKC

[6] = molecular target: Nav1.2 (Homo sapiens, UniProt Q99250); conditions: read-out: TTX IC-50; cited from earlier work
[7] = molecular target: Nav1.9 (Homo sapiens, UniProt Q9UI33); conditions: read-out: TTX IC-50; cited from earlier work
[8] = 'as little as only'; cited from earlier work

T1 sequence (Q9NY46 whole entry): as the sequence (Q9NY46 whole entry, looked up) above

SMILES | IC50 [1] [nM] | other results
CC(C)(CNS(=O)(=O)c1ccc(S(=O)(=O)Nc2nccs2)cc1)c1ccc(Cl)cc1 [Compound 39, Benzene-1,4-disulfonic acid 1-{[2-(4-chloro-phenyl)-2-methyl-propyl]-amide} 4-thiazol-2-ylamide] | 100 to 500 | 
O=S(=O)(NCc1cc(F)cc(C(F)(F)F)c1)c1ccc(S(=O)(=O)Nc2nccs2)cc1 [Compound 40, Benzene-1,4-disulfonic acid 1-(3-fluoro-5-trifluoromethyl-benzylamide) 4-thiazol-2-ylamide] | 100 to 500 | 
O=S(=O)(NCCc1ccc(Cl)s1)c1ccc(S(=O)(=O)Nc2nccs2)cc1 [Compound 41, Benzene-1,4-disulfonic acid 1-{[2-(5-chloro-thiophen-2-yl)-ethyl]-amide} 4-thiazol-2-ylamide] | 100 to 500 | 
CC(C)(C)CCNS(=O)(=O)c1ccc(S(=O)(=O)Nc2nccs2)c(F)c1 [Compound 42, 2-Fluoro-benzene-1,4-disulfonic acid 4-[(3,3-dimethyl-butyl)-amide] 1-thiazol-2-ylamide] | 100 to 500 | 
O=S(=O)(NCCOc1ccccc1Cl)Nc1ccc(S(=O)(=O)Nc2nccs2)cc1 [Compound 43, N-[2-(2-chloro-phenoxyl)-ethyl]-N′-[4-(N-thiazol-2-yl-sulfonamyl)-phenyl]-sulfamide] | 500 to 1000 | 
O=S(=O)(NCCC1CCCCC1)c1ccc(S(=O)(=O)Nc2nccs2)cc1 [Compound 44, Benzene-1,4-disulfonic acid 1-[(2-cyclohexyl-ethyl)-amide] 4-thiazol-2-ylamide] | 500 to 1000 | 
O=S(=O)(NCC(c1ccccc1)c1ccccc1)Nc1ccc(S(=O)(=O)Nc2nccs2)cn1 [Compound 45] | > 1000 | 
O=S(=O)(NCCC1CCOCC1)Nc1ccc(S(=O)(=O)Nc2nccs2)cc1 [Compound 46, N-[2-(4-tetrahydro-pyranyl]-ethyl]-N′-[4-(N-thiazol-2-yl-sulfonamyl)-phenyl]-sulfamide] | > 1000 | 
CN(CCc1ccccc1)S(=O)(=O)c1ccc(S(=O)(=O)Nc2nccs2)cc1 [Compound 47, Benzene-1,4-disulfonic acid 1-(methyl-phenethyl-amide) 4-thiazol-2-ylamide] | > 1000 | 
NC1=N[C@H](O)[C@H]2[C@H]3O[C@]4(O)O[C@@H]([C@@H](O)[C@@]2(N1)[C@@H]4O)[C@]3(O)CO [TTX, tetrodotoxin] |  | IC50 [2]: 50000 nM; IC50 [3]: 10 nM; IC50 [4]: 15 nM; IC50 [5]: 6 nM; IC50 [6]: 10 nM; IC50 [7]: 1000 nM
NCC1(CC(=O)O)CCCCC1 [gabapentin] |  | patients respond to gabapentin treatment for neuropathic pain [8]: 30%
